Here are results for 44 molecules from paper PMC3816974 (Bioorganic & medicinal chemistry, 2013).

≈ marks a conversion by molar mass, not a printed value. Where only a bound is given, the exact number is not on record here.

The first test deals with M. tuberculosis H37Rv. Put plainly: M. tuberculosis H37Rv MIC assay. It is filed as cell-based, Mycobacterium tuberculosis.
Conditions: not given
Regarding “2-[N-(Benzoyl)amino]-4-(thiazol-2-yl)thiazole [Compound 92]”, the “MIC, μM (7H9-glucose)” value is more than 25 µM.

The same test, now with this note: M. tuberculosis H37Rv.
Take “2-[N-(Benzoyl)amino]-4-(thiazol-2-yl)thiazole [Compound 92]”: the “antitubercular activity (in words)” value is “inactive”.

Consider `O=C(Nc1nc(-c2ccccc2)cs1)c1ccccc1` [Compound 90, 2-[N-(Benzoyl)amino]-4-(phenyl)thiazole], for which the “antitubercular activity (in words)” value is listed as “obliterates all activity”.

Turning to `O=C(Nc1nc(-c2cnccn2)cs1)c1ccccc1` [Compound 91, 2-[N-(Benzoyl)amino]-4-(pyrazin-2-yl)thiazole], the “antitubercular activity (in words)” value was “inactive”.

The same test, now with this note: M. tuberculosis H37Rv; GAST medium (glycerol and alanine); […].
For the molecule “2-[N-(Benzoyl)amino]-4-(thiazol-2-yl)thiazole [Compound 92]”, the “MIC, μM (GAST)” value is not below 25 µM.

The test is the same for the next values; noted with them: Mycobacterium tuberculosis, H37RV, read-out: MIC, μM (7H9-butyrate).
With `Cc1ccccc1C(=O)Nc1nc(-c2ccccn2)cs1` [Compound 36], the MIC was in the range of 0.19 to 0.39 µM (≈ 0.0561 to 0.115 µg/mL).

Consider `Cc1cccc(C(=O)Nc2nc(-c3ccccn3)cs2)c1` [Compound 37], for which the MIC fell in the range of 0.049 to 0.098 µM (≈ 0.0145 to 0.0289 µg/mL).

For the molecule `COc1ccccc1C(=O)Nc1nc(-c2ccccn2)cs1` [Compound 42], the MIC fell in the range of 3.1 to 6.3 µM (≈ 0.965 to 1.96 µg/mL).

Take `COc1ccc(C(=O)Nc2nc(-c3ccccn3)cs2)cc1` [Compound 44]: the MIC lay within 0.19 to 0.39 µM (≈ 0.0592 to 0.121 µg/mL).

For the molecule `O=C(Nc1nc(-c2ccccn2)cs1)c1ccccc1O` [Compound 45], the MIC is 1.6 to 3.1 µM (≈ 0.476 to 0.922 µg/mL).

Regarding `CC(=O)c1ccc(C(=O)Nc2nc(-c3ccccn3)cs2)cc1` [Compound 48], the MIC fell in the range of 0.19 to 0.39 µM (≈ 0.0614 to 0.126 µg/mL).

With `O=C(Nc1nc(-c2ccccn2)cs1)c1ccccc1Cl` [Compound 54], the MIC is 0.19 to 0.39 µM (≈ 0.06 to 0.123 µg/mL).

Take `O=C(Nc1nc(-c2ccccn2)cs1)c1c(F)cccc1Cl` [Compound 66]: the MIC was 0.39 to 0.78 µM (≈ 0.13 to 0.26 µg/mL).

In the case of `O=C(Nc1nc(-c2ccccn2)cs1)c1ccccn1` [Compound 68], the MIC lay within 3.1 to 6.3 µM (≈ 0.875 to 1.78 µg/mL).

The test is the same for the next values; noted with them: Mycobacterium tuberculosis, H37RV, read-out: MIC, μM (7H9-glucose).
In the case of `FC(F)(F)c1ccccc1Nc1nc(-c2ccccn2)cs1` [Compound 13], the MIC was 12 to 25 µM (≈ 3.86 to 8.03 µg/mL).

In the case of `c1ccc(Nc2nc(-c3ccccn3)cs2)nc1` [Compound 17], the MIC fell in the range of 0.78 to 1.6 µM (≈ 0.198 to 0.407 µg/mL).

As to `CCCC(=O)Nc1nc(-c2ccccn2)cs1` [Compound 21, N-[4-(2-pyridinyl)-1,3-thiazol-2-yl)butyramide], the MIC lay in the range of 12 to 25 µM (≈ 2.97 to 6.18 µg/mL).

`O=C(Nc1nc(-c2ccccn2)cs1)C1CC1` [Compound 25]: the MIC fell in the range of 12 to 25 µM (≈ 2.94 to 6.13 µg/mL).

Take `CC1CC1C(=O)Nc1nc(-c2ccccn2)cs1` (stereo not shown) [Compound 29]: the MIC was in the range of 6.3 to 12.5 µM (≈ 1.63 to 3.24 µg/mL).

Regarding `O=C(Nc1nc(-c2ccccn2)cs1)c1ccco1` [Compound 30], the MIC was 3.1 to 6.3 µM (≈ 0.841 to 1.71 µg/mL).

As for `O=C(Nc1nc(-c2ccccn2)cs1)c1ccoc1` [Compound 31], the MIC lay within 3.1 to 6.3 µM (≈ 0.841 to 1.71 µg/mL).

As to `O=C(Nc1nc(-c2ccccn2)cs1)c1cccs1` [Compound 32], the MIC lay in the range of 1.6 to 3.1 µM (≈ 0.46 to 0.891 µg/mL).

`O=C(Nc1nc(-c2ccccn2)cs1)c1ccsc1` [Compound 33]: the MIC lay within 1.6 to 3.1 µM (≈ 0.46 to 0.891 µg/mL).

On to `Cc1cccc(C(=O)Nc2nc(-c3ccccn3)cs2)c1` [Compound 37], for which the MIC was 0.19 to 0.39 µM (≈ 0.0561 to 0.115 µg/mL).

Consider `O=C(Nc1nc(-c2ccccn2)cs1)c1cccc(OCc2ccccc2)c1` [Compound 40], for which the MIC was in the range of 0.39 to 0.78 µM (≈ 0.151 to 0.302 µg/mL).

Take `O=C(Nc1nc(-c2ccccn2)cs1)c1ccc(OCc2ccccc2)cc1` [Compound 41]: the MIC was 0.19 to 0.39 µM (≈ 0.0736 to 0.151 µg/mL).

Turning to `COc1cccc(C(=O)Nc2nc(-c3ccccn3)cs2)c1` [Compound 43], the MIC was 0.19 to 0.39 µM (≈ 0.0592 to 0.121 µg/mL).

In the case of `O=C(Nc1nc(-c2ccccn2)cs1)c1ccccc1O` [Compound 45], the MIC is 1.6 to 3.1 µM (≈ 0.476 to 0.922 µg/mL).

Consider `O=C(Nc1nc(-c2ccccn2)cs1)c1ccccc1[N+](=O)[O-]` [Compound 49], for which the MIC lay in the range of 1.6 to 3.1 µM (≈ 0.522 to 1.01 µg/mL).

As to `O=C(Nc1nc(-c2ccccn2)cs1)c1cccc([N+](=O)[O-])c1` [Compound 50], the MIC fell in the range of 1.6 to 3.1 µM (≈ 0.522 to 1.01 µg/mL).

For `O=C(Nc1nc(-c2ccccn2)cs1)c1ccccc1Br` [Compound 51], the MIC lay in the range of 0.39 to 0.78 µM (≈ 0.14 to 0.281 µg/mL).

For `O=C(Nc1nc(-c2ccccn2)cs1)c1cccc(Br)c1` [Compound 52], the MIC was in the range of 0.098 to 0.19 µM (≈ 0.0353 to 0.0684 µg/mL).

Consider `O=C(Nc1nc(-c2ccccn2)cs1)c1ccccc1Cl` [Compound 54], for which the MIC was in the range of 0.39 to 0.78 µM (≈ 0.123 to 0.246 µg/mL).

For the molecule `O=C(Nc1nc(-c2ccccn2)cs1)c1cccc(Cl)c1` [Compound 55, N-(3-Chlorobenzoyl)-4-(2-pyridinyl)-1,3-thiazol-2-amine], the MIC is 0.19 to 0.39 µM (≈ 0.06 to 0.123 µg/mL).

As for `O=C(Nc1nc(-c2ccccn2)cs1)c1ccccc1F` [Compound 57], the MIC was in the range of 1.6 to 3.1 µM (≈ 0.479 to 0.928 µg/mL).

On to `O=C(Nc1nc(-c2ccccn2)cs1)c1cccc(F)c1` [Compound 58], for which the MIC fell in the range of 0.19 to 0.39 µM (≈ 0.0569 to 0.117 µg/mL).

`O=C(Nc1nc(-c2ccccn2)cs1)c1ccc(F)cc1F` [Compound 61]: the MIC was in the range of 0.39 to 0.78 µM (≈ 0.124 to 0.248 µg/mL).

With `O=C(Nc1nc(-c2ccccn2)cs1)c1ccc(F)c(F)c1` [Compound 64], the MIC lay within 1.6 to 3.1 µM (≈ 0.508 to 0.984 µg/mL).

Turning to `O=C(Nc1nc(-c2ccccn2)cs1)c1cccnc1Cl` [Compound 67], the MIC was 0.39 to 0.78 µM (≈ 0.124 to 0.247 µg/mL).

With `O=C(Nc1nc(-c2ccccn2)cs1)c1ccncc1` [Compound 70], the MIC fell in the range of 1.6 to 3.1 µM (≈ 0.452 to 0.875 µg/mL).

The test is the same for the next values; noted with them: relative to 1.
Take `O=C(Nc1nc(-c2ccccn2)cs1)c1ccccc1` [Compound 35, 2-[N-(Benzoyl)amino]-4-(pyridin-2-yl)thiazole]: the “fold better MIC than the corresponding N-phenyl 1” value was 64 fold.

The test is the same for the next values; noted with them: relative to 35.
As to `Cc1cccc(C(=O)Nc2nc(-c3ccccn3)cs2)c1` [Compound 37], the “fold increase in potency relative to benzoyl 35” value is 2- to 4 fold.

Consider `O=C(Nc1cc(-c2ccccn2)cs1)c1ccccc1` [Compound 75, 2-[N-(Benzoyl)amino]-4-(pyridin-2-yl)thiophene], for which the “fold loss of potency relative to the parent thiazole 35” value is recorded as not below 64 fold.

`O=C(Nc1nc(-c2ccccn2)c[nH]1)c1ccccc1` [Compound 78, 2-[N-(Benzoyl)amino]-4-(pyridin-2-yl)imidazole]: the “fold loss of potency relative to the parent thiazole 35” value was 16- to 64 fold.

As to `O=C(Nc1nc(-c2ccccn2)co1)c1ccccc1` [Compound 82, 2-[N-(Benzoyl)amino]-4-(pyridin-2-yl)oxazole], the “fold loss of potency relative to the parent thiazole 35” value is 16- to 64 fold.

Still in this test, the particulars now being: relative to 69.
As to `O=C(Nc1nc(-c2ccccn2)cs1)c1cccnc1Cl` [Compound 67], the “fold improvement of activity over nicotinoyl 69” value is 8- to 16 fold.

Staying with this test, now noted: relative to oxazole 82.
Take `O=C(Nc1nnc(-c2ccccn2)o1)c1ccccc1F` [Compound 83, 2-[N-(2-Fluorobenzoyl)amino]-5-(pyridin-2-yl)-1,3,4-oxadiazole]: the “regain in potency relative to 82” value is given as 2–4.

The next test concerns Vero cells. Put plainly: Vero cell cytotoxicity MTT assay. It is filed as cell-based, green monkey. As to conditions: 72 h, concentration that inhibited 50% viability.
As to `O=C(Nc1nc(-c2ccccn2)cs1)c1ccccc1OCc1ccccc1` [Compound 39], the “EC50, μM” value is “insol”.

The subject of the next test is Mtb.
Test: not given
The conditions noted are these: reported values; cited from earlier work.
As to `Fc1ccc(Nc2nc(-c3ccccn3)cs2)cc1` [Compound 12], the “reported MIC (HTS results)” value was 2 µM.

With `FC(F)(F)c1ccccc1Nc1nc(-c2ccccn2)cs1` [Compound 13], the “reported MIC (HTS results)” value was less than 0.3 µM.

For the molecule `Clc1ccc(Nc2nc(-c3ccccn3)cs2)nc1` [Compound 18], the “reported MIC (HTS results)” value is 0.35 µM.

`Cc1cccc(Nc2nc(-c3ccccn3)cs2)n1` [Compound 19]: the “reported MIC (HTS results)” value was 0.35 µM.
